Where two headings read alike, the source gives them in different places.

Data on five compounds can be found in patent US20230131899A1, “INHIBITORS OF MICROBIALLY INDUCED AMYLOID” (Axial Therapeutics, Inc., priority 2020, published 2023).

The target of one experiment is T1, E. coli CsgA (Escherichia coli, UniProt P28307).
T1 construct: made in house; host or cells: E. coli NEB 3016 slyD::kan, pET11d
Nature of the experiment: In vitro ThioflavinT assay of CsgA aggregation (CsgA ThT Assay). The experiment is classed as biochemical. Particulars: 1005 minutes; for remaining activity at 25 µM / CsgA ThT Assay (10 μM CsgA) % Control AUC at 1005 minutes, 25 μM (activity range) / CsgA ThT Assay (10 μM CsgA) % Control AUC at 1005 minutes, 25 μM: compound 25 μM; for remaining activity at 100 µM / CsgA ThT Assay (10 μM CsgA) % Control AUC at 1005 minutes, 100 μM (activity range) / CsgA ThT Assay (10 μM CsgA) % Control AUC at 1005 minutes, 100 μM: compound 100 μM; for CsgA ThT Assay (10 μM CsgA) % Control AUC at 1005 minutes, 25 μM / CsgA ThT Assay (10 μM CsgA) % Control AUC at 1005 minutes, 100 μM: mean AUC as % of DMSO control. As to the method:
In vitro ThioflavinT assay to determine effects of compounds on CsgA aggregation. To assess the effects of compounds on aggregation of E. coli CsgA, a cell-free assay was performed using purified CsgA and Thioflavin T. In the assay, histidine-tagged CsgA was over-expressed in E. coli NEB 3016 slyD::kan cells harboring a pET11d vector containing a C-terminal 6× His tag. Following growth in rich media, CsgA production is induced at an OD600 of approximately 1.0 by addition of 0.5 mM IPTG (isopropyl beta-D-1-thiogalactopyranoside) followed by incubation at 37° C. for 1-4 hours with shaking at 200-250 rpm. Bacteria were resuspended in 8 M guanidine hydrochloride in 50 mM potassium phosphate buffer, pH 7.3 and lysed by sonication on ice using three 20 second intervals. The resulting lysate was incubated on a platform rocker for 1 hour at room temperature. After centrifugation at 10,000×g for 20 minutes, the supernatant was further sonicated on ice for three 20 second intervals and then incubated with nickel-nitrilotriacetic acid resin (Sigma) at room temperature for 1 hour in a 50 mL conical tube on a platform rocker. The resin was washed and pelleted 5 times with 45 mL 8 M guanidine in 50 mM potassium phosphate buffer pH 7.3. The resin was further washed and pelleted two times with 8 M guanidine hydrochloride in 50 mM potassium phosphate buffer pH 7.3 containing 12.5 mM imidazole. Purified CsgA protein was eluted two times with 5 mL of 6-8 M guanidine hydrochloride in 50 mM potassium phosphate buffer, pH 7.3 containing 250 mM imidazole. The eluted protein was aliquoted with 150 μL per aliquot, snap frozen in liquid nitrogen, and stored at −80 C. In order to obtain monomeric CsgA, the purified CsgA protein was thawed and passed through two pre-chilled desalting columns (Zeba) to remove imidazole and guanidine. The buffer exchanged protein was loaded onto a 30-kDa centrifugal filter unit (Amicon) and spun for 30 minutes at 7500×g to remove dimers and other oligomers. Protein concentration was assessed by the NanoDrop technique (Thermo Scientific), as is familiar to one skilled in the art. The CsgA aggregation assay was conducted in 96-well black non-binding surface or white untreated microplates with 20-40 μM ThioflavinT, 50 mM potassium phosphate buffer pH 7.3, 1% DMSO, CsgA at 2-20 μM, and compounds at 3.125-200 uM. The vehicle control wells contain all components of the assay except test compounds and represent the level of CsgA aggregation in the absence of any inhibitor or accelerator. Plates were incubated at room temperature in a Tecan Nano F200 plate reader with excitation at 438 nm using a 439 nm filter with a bandwidth of 8 nm, and emission at 495 nm with a 490 nm filter with a bandwidth of 10 nm, or in a SpectraMax M5, SpectraMax M2 or SpectraMax® i3X (Molecular Devices, San Jose, Calif.) spectrophotometer with excitation at 438 nm and emission at 495 nm. During the assay, plates were shaken initially for 5 seconds and subsequently for 3 seconds prior to fluorescent readings. Readings were performed every 15 minutes for up to 1005 minutes. The effect of compounds on CsgA aggregation in the assay was determined with data from 0-17 hours. Fluorescence values for each compound with CsgA were first adjusted by subtracting the average fluorescence of the compound in the absence of CsgA or in the presence of CsgA and compound at time 0 or 15 minutes. The data were analyzed in several ways:
1. The adjusted ThT fluorescence values were normalized by dividing them by the average fluorescence in the vehicle control wells containing CsgA. The median normalized fluorescence from 6-6.5 hours or 8-9 hours with the compound was expressed as a percentage of the median fluorescence observed in vehicle controls over the same time period. Percent inhibition of CsgA aggregation by a compound was determined by subtracting the percent average fluorescence with the compound relative to the vehicle controls from 100%. […]

Experiment [1] relates to CsgA gene expression (csgBAC promoter-GFP reporter) in E. coli UTI89. Kind of experiment: In vitro live cell fluorescent reporter assay of CsgA transcription (Reporter Assay). The experiment is classed as cell-based. As to the method: In vitro live cell fluorescent reporter assay to determine effects of compounds on CsgA transcription. To assess the impact of compounds on CsgA gene expression, a live cell assay was performed using an engineered strain of E. coli UTI89 with a fluorescent CsgA gene expression reporter driven by the csgBAC promoter. In the reporter strain, a gene encoding Green Fluorescent Protein (GFP) was placed immediately downstream of the full intergenic region between csgDEF and csgBAC, containing the csgBAC promoter and other transcriptional regulatory elements, and inserted in single copy into the E. coli UTI89 chromosome, as described in Cegelski et. al., “Small-molecule inhibitors target Escherichia coli amyloid biogenesis and biofilm formation,” Nat. Chem. Bio., 25 Oct. 2009. With this construct, GFP expression in the reporter strain was under the same regulation as CsgA expression. The reporter strain was struck out on a YESCA agar plate (1 g/L yeast extract, 10 g/L casamino acids, 20 g/L Bacto Agar) and grown at about 27° C. for 2 days, or until single colonies were sufficiently large to pick. A single colony of the reporter strain was used to inoculate 5 mL of YESCA broth (1 g/L yeast extract, 10 g/L casamino acids), which was grown overnight at about 27° C. The inoculum was diluted 1:10 in YESCA broth and the optical density at 600 nm (OD600) was measured on a SpectraMax M2 or M5e (Molecular Devices, San Jose, Calif.) spectrophotometer in cuvettes. The culture was then further diluted to achieve a final OD600 of 0.003, which was confirmed by measurement of the OD600. Compounds were diluted in dimethyl sulfoxide (DMSO) and plated on black clear-bottomed tissue culture-treated 96-well plates with 1.5 μL/well for final test concentrations from 0.14-100 μM. All assay wells, including vehicle controls and positive controls for inhibition, included 1% DMSO final. Vehicle control wells consisted of DMSO and the reporter strain to assess the expression of the reporter strain in the assay in the absence of any compound. […] 148.5 μL culture at OD600 0.003 in YESCA broth was added to all wells for 150 μL final volume. Plates were incubated at 27° C. for 20 hours, then GFP fluorescence signal for each well was read on a Spectramax M2 or M5e plate reader with excitation at 485 nm, emission at 525 nm, and a cutoff at 515 nm. OD600 for each well was also measured on the Spectramax M2 or M5e plate reader. […] Background fluorescence was subtracted from all wells, then fluorescence signal for each well was normalized to the mean of the vehicle control wells. Normalized dose response curves were plotted for each compound, and compound inhibition of CsgA transcription was determined by assessing the curve-fit IC50, bottom, top, span (top-bottom), and Hill slope using GraphPad Prism software version 8.1.1 (GraphPad Software, San Diego, Calif.). An additional metric used to evaluate compounds was the concentration at which the curve reached 50% of the expression level of the vehicle control. This was written as a custom analysis in GraphPad Prism according to the formula X[50], or the X value at which Y=50, ie, the compound concentration at which fluorescence of the reporter strain was calculated to reach 50% of the vehicle control fluorescence. Separately from the fluorescence data, OD600 values were normalized to the mean of the vehicle control wells, and dose response curves were plotted for each compound. OD600 reduction of greater than 10% indicated compounds had some toxicity or negative impact on bacterial growth. […]

[2] abbreviates: Escherichia coli, read-out: Reporter Assay Abs IC50 (activity range), median Abs IC50 in the CsgA reporter assay, class symbol.
Where [3] appears, read: Escherichia coli, read-out: Reporter Assay Abs IC50 (μM), median Abs IC50 in the CsgA reporter assay, N/A = maximum expression reduction is <50% of control.
Setting [4] is: CsgA 10 μM, black plates, class symbol.
[5] abbreviates: read-out: Reporter Assay Abs IC50 (activity range), median Abs IC50 in the CsgA reporter assay, class symbol.
The mark [6] stands for this setting: read-out: Reporter Assay Abs IC50, median Abs IC50 in the CsgA reporter assay, N/A = maximum expression reduction is <50% of control.

T1 sequence (P28307 23-151): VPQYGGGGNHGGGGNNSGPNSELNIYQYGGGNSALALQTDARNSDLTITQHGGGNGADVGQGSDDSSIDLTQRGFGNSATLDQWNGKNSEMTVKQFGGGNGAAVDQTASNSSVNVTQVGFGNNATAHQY

With `CCN1CC(C(=O)O)n2c(c(-c3cccc(C(F)(F)F)c3)c(Cc3cccc4ccccc34)cc2=O)S1(=O)=O` (racemic) [Compound 015, 2-ethyl-8-(naphthalen-1-ylmethyl)-6-oxo-9-(3-(trifluoromethyl)phenyl)-3,4-dihydro-2H,6H-pyrido[1,2-e][1,2,5]thiadiazine-4-carboxylic acid 1,1-dioxide], the remaining activity at 25 µM at E. coli CsgA (read-out: CsgA ThT Assay (10 μM CsgA) % Control AUC at 1005 minutes, 25 μM (activity range), CsgA 10 μM, black plates, class symbol) is 11 to 31%; at E. coli CsgA (read-out: CsgA ThT Assay (10 μM CsgA) % Control AUC at 1005 minutes, 25 μM, mean AUC as % of DMSO control, CsgA 10 μM, black plates) it was 28%. The remaining activity at 100 µM is 11 to 31% on E. coli CsgA (read-out: CsgA ThT Assay (10 μM CsgA) % Control AUC at 1005 minutes, 100 μM (activity range), CsgA 10 μM, black plates, class symbol) and 27% on E. coli CsgA (read-out: CsgA ThT Assay (10 μM CsgA) % Control AUC at 1005 minutes, 100 μM, mean AUC as % of DMSO control, CsgA 10 μM, black plates). Besides, the figures for the IC50 in experiment [1] (setting [2]) and in experiment [1] (setting [3]) were 4.6 to 10 µM and 8 µM, respectively.
As for `O=C(O)C1CSc2c(-c3cccc(C(F)(F)F)c3)c(Cc3cccc4ccccc34)cc(=O)n21` (single isomer, unassigned) [Compound 011b, 7-(naphthalen-1-ylmethyl)-5-oxo-8-(3-(trifluoromethyl)phenyl)-2,3-dihydro-5H-thiazolo[3,2-a]pyridine-3-carboxylic acid], on E. coli CsgA (setting [4]), the “CsgA ThT Assay (10 μM CsgA) % Control AUC at 1005 minutes, 25 μM (activity range)” value is given as “(++) (% control AUC of 31 to 60%)” and the “CsgA ThT Assay (10 μM CsgA) % Control AUC at 1005 minutes, 100 μM (activity range)” value is “(++) (% control AUC of 31 to 60%)”. For the same compound, on E. coli CsgA (CsgA 10 μM, black plates), the “CsgA ThT Assay (10 μM CsgA) % Control AUC at 1005 minutes, 25 μM” value came out at 54% and the “CsgA ThT Assay (10 μM CsgA) % Control AUC at 1005 minutes, 100 μM” value was 53%. Besides, the IC50 in experiment [1] (setting [5]) was 1.3 to 4.5 µM. In experiment [1] (setting [6]), the IC50 was determined as 4.1 µM.
Turning to `O=C(O)C1CS(=O)(=O)c2c(-c3cccc(C(F)(F)F)c3)c(Cc3cccc4ccccc34)cc(=S)n21` (single isomer, unassigned) [Compound 014b, 7-(naphthalen-1-ylmethyl)-5-thioxo-8-(3-(trifluoromethyl)phenyl)-2,3-dihydro-5H-thiazolo[3,2-a]pyridine-3-carboxylic acid 1,1-dioxide], on E. coli CsgA (setting [4]), the “CsgA ThT Assay (10 μM CsgA) % Control AUC at 1005 minutes, 25 μM (activity range)” value was “(+) (% control AUC of greater than 60%)” and the “CsgA ThT Assay (10 μM CsgA) % Control AUC at 1005 minutes, 100 μM (activity range)” value is “(+++) (% control AUC of 11 to 31%)”. Further, on E. coli CsgA (CsgA 10 μM, black plates), the “CsgA ThT Assay (10 μM CsgA) % Control AUC at 1005 minutes, 25 μM” value was found to be 71% and the “CsgA ThT Assay (10 μM CsgA) % Control AUC at 1005 minutes, 100 μM” value is recorded as 26%. Besides, in experiment [1] (setting [2]), the IC50 was more than 10 µM. Besides, the IC50 in experiment [1] (setting [3]) is 44 µM.
In the case of `CCN1CC(C(=O)O)n2c(c(-c3cccc(C(F)(F)F)c3)c(Cc3cccc4ccccc34)cc2=O)S1(=O)=O` (single isomer, unassigned) [Compound 015b, 2-ethyl-8-(naphthalen-1-ylmethyl)-6-oxo-9-(3-(trifluoromethyl)phenyl)-3,4-dihydro-2H,6H-pyrido[1,2-e][1,2,5]thiadiazine-4-carboxylic acid 1,1-dioxide], on E. coli CsgA (setting [4]), the “CsgA ThT Assay (10 μM CsgA) % Control AUC at 1005 minutes, 25 μM (activity range)” value is listed as “(+++) (% control AUC of 11 to 31%)” and the “CsgA ThT Assay (10 μM CsgA) % Control AUC at 1005 minutes, 100 μM (activity range)” value was “(+++) (% control AUC of 11 to 31%)”. For the same compound, at E. coli CsgA (CsgA 10 μM, black plates), the “CsgA ThT Assay (10 μM CsgA) % Control AUC at 1005 minutes, 25 μM” value was found to be 29% and the “CsgA ThT Assay (10 μM CsgA) % Control AUC at 1005 minutes, 100 μM” value is listed as 23%. Further, the IC50 in experiment [1] (setting [5]) was more than 10 µM. The IC50 in experiment [1] (setting [6]) worked out at 22.5 µM.
Consider `O=C(O)C1CN(Cc2ccccc2)c2c(-c3cccc(C(F)(F)F)c3)c(CCc3ccccc3)c(Cl)c(=O)n21` (centres unmarked) [Compound 240, 1-benzyl-6-chloro-5-oxo-7-phenethyl-8-(3-(trifluoromethyl)phenyl)-1,2,3,5-tetrahydroimidazo[1,2-a]pyridine-3-carboxylic acid], for which the IC50 is 1.4 µM in experiment [1] (setting [3]) and 1.3 to 4.5 µM in experiment [1] (Escherichia coli, read-out: Reporter Assay Abs IC50, activity range, class symbol).

For orientation: IC50 means the concentration that inhibits the measured activity by half.
